According to PMC10458698, “Characterization of the interferences of systemic azole antifungal drugs with adrenal steroid biosynthesis using H295R cells and enzyme activity assays” (Current Research in Toxicology, 2023):

Columns and labels:
[1] = molecular target: T1, CYP11A1 (Homo sapiens, UniProt P05108); assay: CYP11A1 assay based on mitochondrial fraction of V79-4 cells; assay type: biochemical; conditions: 10 µM, 20S-hydroxycholesterol 2 µM, 4 h, qualitative, assay of low sensitivity
T1 construct: host or cells: V79-4 cells (Chinese hamster), transient transfection, mitochondrial fraction
T1 sequence (P05108 40-521): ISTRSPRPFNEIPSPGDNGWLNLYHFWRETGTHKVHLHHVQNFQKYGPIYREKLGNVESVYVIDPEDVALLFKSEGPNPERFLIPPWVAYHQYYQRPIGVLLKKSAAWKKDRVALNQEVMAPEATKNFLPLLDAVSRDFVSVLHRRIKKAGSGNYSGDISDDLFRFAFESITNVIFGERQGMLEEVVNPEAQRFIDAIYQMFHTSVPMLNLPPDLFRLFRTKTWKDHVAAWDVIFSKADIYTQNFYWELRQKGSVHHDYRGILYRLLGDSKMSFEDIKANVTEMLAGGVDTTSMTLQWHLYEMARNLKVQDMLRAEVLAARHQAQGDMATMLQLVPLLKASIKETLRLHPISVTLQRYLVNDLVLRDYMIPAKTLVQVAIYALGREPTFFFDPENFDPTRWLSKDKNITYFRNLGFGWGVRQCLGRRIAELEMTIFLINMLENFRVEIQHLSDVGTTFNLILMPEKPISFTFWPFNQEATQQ
Protocol: Mitochondria were prepared as described previously with modifications ([Frezza et al., 2007]). Briefly, V79-4 cells (3,000,000) were seeded 4 h prior to transfection with 4 µg of expression plasmid for CYP11A1 and adrenodoxin (GeneScript Piscataway, USA, clone IDs OHu18602D and OHu55929D) using polyethylemine (PEI) in a PEI/DNA ratio of 3:1 (w/w). At 4 h post-transfection, medium was changed and cells were incubated overnight. Cells were collected in ice cold phosphate buffered saline (PBS) and centrifuged at 600 × g for 10 min at 4 °C. The pellet was resuspended in ice cold isolation buffer (10 mM Tris/MOPS, pH 7.4, 1 mM EGTA/Tris, pH 7.4, 200 mM sucrose in water) and transferred to a glass potter, followed by 35 S using a 2 cm^3 glass Teflon pestle. The homogenate was centrifuged for 10 min at 600 × g and 4 °C. The supernatant was collected and centrifuged for 10 min at 7000 × g at 4 °C. The pellet was washed and resuspended in 200 μL ice cold isolation buffer. After centrifugation, the pellet containing the mitochondrial fraction was resuspended in 30 μL reaction buffer (25 mM HEPES pH 7.4, 0.1 mM DTT, 0.1 mM EDTA, 4 mM MgCl2) and the protein content was determined by the BCA assay according to the manufacturer (Pierce BCA protein assay kit, Thermo Scientific, Rockford, USA). Bovine serum albumin provided with the kit was used as reference protein and absorbance was measured using a BioTek Cytation5 Imaging Reader (Agilent BioTek).
For the CYP11A1 activity assay, 500 µg/mL of freshly prepared mitochondrial fraction were pre-incubated on ice with reaction buffer, 1 mM NADPH and either vehicle (0.1% DMSO), 10 µM of the positive control ketoconazole ([Mast et al., 2013]) or the triazole antifungals for 10 min. The reaction was started by adding the substrate 20S-hydroxycholesterol at a final concentration of 2 µM in a reaction volume of 50 µL. After 4 h of incubation at 37 °C, the reaction was stopped by adding 50 µL methanol and shock-freezing in liquid nitrogen. Samples were stored at −80 °C until sample preparation for pregnenolone detection using an ELISA kit (Alpco, Salem, USA). Sample preparation included evaporation of samples to dryness, reconstitution in 6 µL methanol and 1:25 (v:v) dilution in water. The ELISA was performed according to the manufacturer and absorbance was measured using a BioTek Citation5 imaging reader.

[2] = design: method as in Nguyen et al., 2020; conditions: ref Nguyen et al., 2020; cited from earlier work
[3] = molecular target: T1, CYP11A1; design: method as in Mast et al., 2013, Vanden Bossche et al., 1986; conditions: in words, ref Mast et al., 2013, Vanden Bossche et al., 1986; cited from earlier work

| inhibition of CYP11A1 activity [1] | SMILES | serum concentration with increased risk of pseudohyperaldosteronism [2] [ng/mL] | CYP11A1 inhibition in earlier studies [3] |
| --- | --- | --- | --- |
| very weak inhibitory activity | CC[C@@H]([C@H](C)O)n1ncn(-c2ccc(N3CCN(c4ccc(OC[C@@H]5CO[C@@](Cn6cncn6)(c6ccc(F)cc6F)C5)cc4)CC3)cc2)c1=O [posaconazole, Posaconazole] | > 2500 | moderate CYP11A1 inhibition |
| comparable to ketoconazole | C[C@@H](c1nc(-c2ccc(C#N)cc2)cs1)[C@](O)(Cn1cncn1)c1cc(F)ccc1F [isavuconazole] | – | – |

| SMILES | inhibition of CYP11A1 activity [1] | serum concentration with increased risk of pseudohyperaldosteronism [2] [ng/mL] | CYP11A1 inhibition in earlier studies [3] |
| --- | --- | --- | --- |
| CCC(C)n1ncn(-c2ccc(N3CCN(c4ccc(OCC5COC(Cn6cncn6)(c6ccc(Cl)cc6Cl)O5)cc4)CC3)cc2)c1=O (stereo not drawn) [itraconazole] | very weak inhibitory activity | – | no substantial inhibition |
